Among the data in PubChem BioAssay AID179 (DTP/NCI, 2004) are EC50, IC50 and outcome values, retold here.

The source made the active and inactive calls.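 The calls were made as follows: active = compounds giving half or more protection of infected cells from virus-caused growth loss, again on retest; inactive = the rest.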 Where a SMILES comes first, the peptide text is derived from it. The star is where a group is joined. Cbz = O=C(OCc1ccccc1)* Some results are limits rather than exact numbers.

The assay concerns CEM cells HIV-1 protection, formazan growth assay. The assay can be described thus: NCI AIDS Antiviral Assay. The settings on record: for IC50: measured here: growth of uninfected CEM cells. An outline of the steps: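 Category rules: moderately active means at least 50% protection on retest, and confirmed active means 100% protection reproducibly. The underlying data came from a formazan growth assay in HIV-1-infected CEM cells.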

For orientation: EC50 means the concentration that produces a half-maximal response. Broadly, the IC50 is the concentration that inhibits the measured activity by half. Higher therefore signals lower potency. Consider `O=C(O)c1sccc1-c1cccc2ccccc12`, for which the EC50 was > 200 µM and the IC50 came out at 83.2 µM.
As for `CC(C)O[C@H]1N(C2CC(N=[N+]=[N-])C(CO)O2)C(=O)NC(=O)[C@]1(C)Cl` (stereo not given in full), the EC50 is > 200 µM and the IC50 is > 200 µM.
For `Cc1cc(C(=O)CCCCOc2ccc(C3=NCCO3)cc2)c(C)n1C`, the result was inactive.
Consider `CCOc1ccccc1NC(=O)C(=O)CC(=O)C1=C(C)Nc2ccccc2S1`, for which the EC50 was > 117 µM and the IC50 was > 117 µM.
Consider `Cc1nc(C(N)=S)sc1C(=O)CC(=O)C(=O)Nc1cccc(Cl)c1C`, for which the EC50 was > 170 µM and the IC50 was > 170 µM.
For `O=C(O)C(CO)NC(=O)C1CCCN1C(=O)OCc1ccccc1` (stereo not drawn) (Cbz-Pro-Ser-OH; configuration not given here), the EC50 was > 77.6 µM and the IC50 is > 77.6 µM.
`CCOC(=O)C(Cc1cn(S(=O)(=O)c2ccc(C)cc2)cn1)P(=O)(OCC)OCC` (stereo not given): the EC50 was > 200 µM and the IC50 was > 200 µM.
Turning to `c1ccc([P+](CC2CCCO2)(c2ccccc2)c2ccccc2)cc1` (stereo not given), the EC50 is > 200 µM and the IC50 amounted to 2.82 µM.
Taken in the same sequence, the figures for `COc1ccc(/C=N/NC(=S)Nc2ccccc2)cc1` were > 200 µM and > 200 µM.
As for `CC(C)c1ccc(/C=C(\NC(=O)c2ccccc2)c2nc3ccccc3[nH]2)cc1`, the EC50 was > 49 µM and the IC50 is > 49 µM.
On to `C=C(CN(C)C)c1ccccn1`, for which the EC50 is > 200 µM and the IC50 is > 200 µM.
For the compound `NC(=O)c1cc2ccc(O)c(O)c2cn1`, the EC50 is > 209 µM and the IC50 came to 2.95 µM.
In the same order, the values of `Nc1c(Cl)cc(Cl)cc1C(=O)O` are > 200 µM and 195 µM.
In the same order, the values of `CC(=O)O[C@H]1C#C/C=C\C#CC[C@@H]2C(=O)N[C@@H]12` are > 20 µM and 1.02 µM.
In the same order, the values of `C[C@@H]([C@H]1[C@H](O)C[C@@]2(C)[C@@H]3C=C[C@H]4C(C)(C)[C@@H](N(C)C)CC[C@@]45C[C@@]35CC[C@]12C)N(C)C` are > 100 µM and > 100 µM.
Take `CC(CC(=O)N1C(=O)C(C)(C)[C@@H](O)[C@H]1CC(C)C(Cl)(Cl)Cl)C(Cl)(Cl)Cl` (stereo not given in full): the result was inactive.
On to `CC(=O)OC1SCC2OC(=O)OC21` (stereo not given), for which the EC50 is > 1230 µM and the IC50 is > 1230 µM.
Take `CCOC(=O)CCc1c(C)c2ccc(O)cc2oc1=O`: the EC50 is > 200 µM and the IC50 is > 200 µM.
With `CN1CCN(CC(=O)Nc2cccc3ccccc23)CC1`, the EC50 was > 200 µM and the IC50 is > 200 µM.
As to `Cc1ccc(CC(Cc2ccccc2C)C(=O)O)c(C(=O)O)c1` (stereo not given), the EC50 was > 200 µM and the IC50 is > 200 µM.
With `Cc1c(C)c(C)c(-n2c(=O)n(C)c(=O)n2-n2c(=O)n(C)c(=O)n2-c2c(C)c(C)c(C)c(C)c2C)c(C)c1C`, the EC50 was > 100 µM and the IC50 was found to be 6.31 µM.
Taken in the same sequence, the figures for `N#C/C(=C(/C#N)c1ccccc1)c1ccccc1` were > 200 µM and > 200 µM.
In the same order, the values of `CC1=Nc2ccccc2S/C1=C(/C)NNS(=O)(=O)c1ccc(C)cc1` are > 53.7 µM and > 53.7 µM.
In the same order, the values of `Cn1ncc2c(c1=O)Nc1ccccc1S2(=O)=O` are > 112 µM and > 112 µM.
Take `COc1c(C=O)c2c(c(OC)c1OC)-c1ccc(OC)c(=O)cc1[C@@H](NC(C)=O)CC2`: the EC50 was > 0.2 µM and the IC50 worked out at 0.011 µM.
Regarding `COc1cc(C2C3=C(COC3=O)OC(C)(C)Oc3cc4c(cc32)OCO4)cc(OC)c1O` (stereo not given), the EC50 was > 2 µM and the IC50 came out at 0.575 µM.
For `CC1=C(C(=O)Nc2cc(F)c(F)cc2F)C(c2ccc([N+](=O)[O-])cc2)C(C(=O)Nc2cc(F)c(F)cc2F)=C(C)N1`, the EC50 was > 77.6 µM and the IC50 came to 72.4 µM.
In the same order, the values of `CC(C)(C)[Si](C)(C)OCC1OC(n2ccc(=O)[nH]c2=O)C(O[Si](C)(C)C(C)(C)C)[C@]12N[C@H](C(=O)O)CS2` (stereo not given in full) are > 200 µM and 10.7 µM.
`COc1ccc2c(ccc3c(C(=O)NCCCN(C)CCCNC(=O)c4cn(C)c5c4ccc4cc(OC)ccc45)cn(C)c32)c1`: the EC50 is > 200 µM and the IC50 came out at 1.15 µM.
`CNNc1ncnc2c1cnn2C`: the EC50 was > 794 µM and the IC50 is > 794 µM.
For `CC(C)NC(=O)OCc1c(COC(=O)NC(C)C)n(C)c2c1ccc1sccc12`, the EC50 is > 200 µM and the IC50 is 2.14 µM.
Taken in the same sequence, the figures for `CC1(C)Oc2ccccc2[N+]([O-])=C1c1ccccc1` were > 141 µM and > 141 µM.
Taken in the same sequence, the figures for `Cn1c(O)c(/C=N/c2ncccn2)c(=O)[nH]c1=O` were > 200 µM and > 200 µM.
In the case of `Brc1ccc(C[N+]23CCN(CC2)CC3)cc1`, the EC50 was > 692 µM and the IC50 is > 692 µM.
Turning to `CC(=O)N1c2ccccc2Sc2c1ccc1ccccc21`, the EC50 is > 200 µM and the half-maximal inhibitory concentration (IC50) came out at 45.7 µM.
In the same order, the values of `COc1ccc(Cl)cc1NC(=O)c1ccco1` are > 200 µM and > 200 µM.
`Cc1ccc(C(=O)c2cccc(C)c2C(=O)O)c(C)c1`: the EC50 was > 200 µM and the IC50 is > 200 µM.
For the compound `CCOC(=O)c1cnc2c(ccc3[nH]n(C)nc32)c1=O`, the EC50 was > 251 µM and the IC50 was > 251 µM.
Consider `COc1ccc(C=NC23CC4CC(CC(C4)C2)C3)cc1`, for which the EC50 is > 95.5 µM and the IC50 is > 95.5 µM.
For `Cc1cccc(C=C2C(=O)NC(=O)NC2=O)c1`, the EC50 was > 407 µM and the IC50 was > 407 µM.
With `CN(C)c1ccc(/C=C/C(=O)c2ccc(O)cc2)cc1`, the EC50 was > 200 µM and the IC50 came to 3.31 µM.
As for `Cc1cc2c(C(C)C)c(O)c(O)c(C=O)c2c(O)c1-c1c(C)cc2c(C(C)C)c(O)c(O)c(C=Nc3ccccc3SSc3ccccc3N)c2c1O`, the EC50 was > 200 µM and the IC50 stood at 24.5 µM.
Taken in the same sequence, the figures for `CSC(C)CS(=O)(=O)O` (stereo not given) were > 200 µM and > 200 µM.
In the same order, the values of `N#CC1N(C(=O)c2ccc(F)cc2)c2ccccc2N1C(=O)c1ccc(F)cc1` are > 200 µM and 74.1 µM.
Taken in the same sequence, the figures for `Cc1cc(C)cc(N(C2C3CCC(C)(C2O)C3(C)C)S(=O)(=O)c2ccccc2)c1` (stereo not given) were > 200 µM and 24.5 µM.
Take `Cc1ccc(C(=O)OC[C@H]2CC[C@@H](n3cc(N(C)C4CCCCC4)c(=O)[nH]c3=O)O2)cc1`: the EC50 is > 200 µM and the IC50 was 53.7 µM.
Turning to `CC(C)CCCC(C)[C@H]1CCC2[C@@H]3CCC4Nc5[nH]ncc5C[C@]4(C)C3CC[C@@]21C` (stereo not given in full), the result was inactive.
Consider `COc1cc(C2SCC(=O)N2c2ccc(-c3ccc(-n4c(-c5ccccc5)nc5ccccc5c4=O)cc3)cc2)ccc1O` (stereo not given), for which the EC50 was > 200 µM and the IC50 stood at 67.6 µM.
In the same order, the values of `CC1(O)/C(=N/O)CC2CC1C2(C)C` (stereo not given) are > 1350 µM and > 1350 µM.
Taken in the same sequence, the figures for `COc1cc2oc(=O)cc(C)c2cc1[N+](=O)[O-]` were > 53.7 µM and 21.9 µM.
In the same order, the values of `O=[N+]([O-])c1cccc2c([As](=O)(O)O)cccc12` are > 200 µM and 91.2 µM.
As to `CN1CN(c2ccccc2)C2(CCN(Cc3nc4ccccc4s3)CC2)C1=O`, the EC50 was > 200 µM and the IC50 is 30.9 µM.
Taken in the same sequence, the figures for `COc1cc(C2SCC(=O)N2NC(=O)c2ccc(NC(C)=O)cc2)cc(OC)c1OC` (stereo not given) were > 58.9 µM and > 58.9 µM.
Consider `C1CSCCCSCCSCCCSC1`, for which the EC50 was > 18.2 µM and the IC50 was > 18.2 µM.
In the case of `CCOC(=O)C1(C)C(=O)CC2c3nc4ccccc4cc3CN2C1=O` (stereo not given), the EC50 was > 10 µM and the half-inhibitory concentration (IC50) is > 10 µM.
For `C=CC(C)(C)c1cc(O)c2oc3c(O)cccc3c(=O)c2c1O`, the EC50 is > 151 µM and the IC50 was 37.2 µM.
Regarding `CCCCN(CCCC)CC(C(=O)Nc1ccc([N+](=O)[O-])cc1[N+](=O)[O-])/C(C)=N\NC(=S)NN` (stereo not given), the EC50 was > 52.5 µM and the IC50 is > 52.5 µM.
For the compound `O=C(O)CCC(NC(=O)c1ccc(CNc2nc3ccccc3nc2C(=O)O)cc1)C(=O)O` (stereo not given), the EC50 was > 200 µM and the IC50 was > 200 µM.
On to `O=C1c2c(Br)sc(Br)c2C(NC(=O)C(F)(F)F)C1O` (stereo not given), for which the EC50 is > 200 µM and the IC50 stood at 35.5 µM.
Taken in the same sequence, the figures for `COc1ccc2nc3ccccc3c(NCCC[N+](C)(C)[O-])c2c1[N+](=O)[O-]` were > 200 µM and 14.1 µM.
Taken in the same sequence, the figures for `c1ccc(Nc2nnc(CCCCCCCCc3nnc(Nc4ccccc4)o3)o2)cc1` were > 200 µM and 107 µM.
For `S=C=Nc1ccc(CSc2nc3ccccc3[nH]2)cc1`, the result was inactive.
As for `O=C(Nc1ccccc1)c1cc(S(=O)(=O)Nc2nc3ncccc3[nH]2)c(SSc2cc(Cl)c(C(=O)Nc3ccccc3)cc2S(=O)(=O)Nc2nc3ncccc3[nH]2)cc1Cl`, the EC50 was 112 µM and the IC50 was > 200 µM.
In the same order, the values of `S=c1[nH]c(=S)c2[nH]cnc2[nH]1` are > 200 µM and 85.1 µM.
Taken in the same sequence, the figures for `CC(=O)OC1=c2ccccc2=C(O)C2C1C=NN2C(C)=O` (stereo not given) were > 200 µM and 87.1 µM.
In the same order, the values of `CC(C)(C)C(=O)/C=C(\OB(F)F)C(C)(C)C` are > 200 µM and > 200 µM.
In the case of `CC(C)(C)C(=O)C(C#N)C(=O)C(C)(C)C`, the EC50 was > 200 µM and the IC50 was > 200 µM.
Turning to `c1ccc2c3nnc(c2c1)SCCCSc1nnc(c2ccccc12)SCCCS3`, the EC50 is > 200 µM and the IC50 was > 200 µM.
Consider `O=C1[C@@H]2C(c3ccccc3Br)=NO[C@@H]2C(=O)N1c1ccc(Cc2ccc(N3C(=O)[C@H]4C(c5ccccc5Br)=NO[C@H]4C3=O)cc2)cc1`, for which the EC50 was > 9.55 µM and the IC50 is > 9.55 µM.
In the case of `OCC1OC(n2ccc3cnccc32)CC1O` (stereo not given), the outcome was inactive.
